# Publication PMC4404333, “Identification of Selective Inhibitors of the Plasmodium falciparum Hexose Transporter PfHT by Screening Focused Libraries of Anti-Malarial Compounds” (PLoS ONE, 2015)
# Where “and” joins values, the source holds several entries; their conditions need not be identical. Identical values can stand only once. Counter-ions that a name gives are not always drawn. Like-named read-outs stand apart in the source and are kept apart here.
# Columns and labels:
# [1] = test system: P. falciparum strain 3D7 intraerythrocytic forms; parameters: method as in PubChem web site, http://pubchem.ncbi.nlm.nih.gov/; conditions: reported values; ref PubChem web site, http://pubchem.ncbi.nlm.nih.gov/; read-out: EC50 3D7 In vitro; cited from earlier work
# PfHT = PfHT (Plasmodium falciparum, UniProt Q7KWJ5); test: Uptake of [3H] D-glucose by L. mexicana Δlmxgt1-3 null mutants expressing PfHT; format: cell-based; parameters: expressed in transfected cells; host or cells: Leishmania mexicana promastigotes, Δlmxgt1-3 hexose transporter null mutant; conditions: for SIglucose GLUT1/PfHT (Specificity Index, IC50 for GLUT1/IC50 for PfHT): uptake of 100 μM [3H] D-glucose; for Ki: linear regression; for Vmax: glucose uptake by PfHT
# Procedure: (§1) Glucose uptake assays employed logarithmic phase L. mexicana promastigotes of the Δlmxgt1-3 hexose transporter null mutant strain expressing either PfHT or GLUT1 from an episomal expression vector [17]. Parasites (1x10^7) were resuspended in 100 μL phosphate buffered saline, pH 7.4. Prior to uptake, parasites were pre-incubated for 5 min with inhibitor, and uptake was initiated by adding 100 μL of 200 μM [^3H] D-glucose diluted to 4.0 μCi/mL. Uptake was terminated, typically after 1 min, by centrifuging the parasites through a layer of dibutyl phthalate, as described. Control uptake assays employing [^3H] hypoxanthine, [^3H] uridine, and [^3H] L-proline were performed similarly. Analysis of kinetic data was performed using Graph Pad Prism 4.0b software (Graph Pad).
# human GLUT1 = target: T1, human GLUT1 (Homo sapiens, UniProt P11166); test: Uptake of [3H] D-glucose by L. mexicana Δlmxgt1-3 null mutants expressing GLUT1; format: cell-based; parameters: expressed in transfected cells; host or cells: Leishmania mexicana promastigotes, Δlmxgt1-3 hexose transporter null mutant; conditions: inhibition of uptake of 100 μM [3H] D-glucose, 1 min uptake assay
# T1 sequence (P11166 1-492): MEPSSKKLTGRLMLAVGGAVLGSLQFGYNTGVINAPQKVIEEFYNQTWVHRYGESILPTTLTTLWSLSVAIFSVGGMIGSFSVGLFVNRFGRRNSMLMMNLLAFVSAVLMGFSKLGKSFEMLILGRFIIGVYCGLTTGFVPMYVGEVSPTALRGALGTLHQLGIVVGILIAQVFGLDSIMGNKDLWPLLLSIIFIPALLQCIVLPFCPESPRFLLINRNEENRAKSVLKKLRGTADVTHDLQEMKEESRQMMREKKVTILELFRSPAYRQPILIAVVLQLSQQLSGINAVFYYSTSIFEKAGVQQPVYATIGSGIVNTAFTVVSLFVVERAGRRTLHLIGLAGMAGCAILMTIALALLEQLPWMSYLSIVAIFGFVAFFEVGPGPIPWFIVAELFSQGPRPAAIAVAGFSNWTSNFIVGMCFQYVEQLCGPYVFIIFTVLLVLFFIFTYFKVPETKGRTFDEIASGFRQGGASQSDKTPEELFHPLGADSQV
# Procedure: as §1
# P. falciparum strain 3D7 = test: Proliferation of intraerythrocytic P. falciparum 3D7 (SYBR Green, 72 h); format: cell-based, Plasmodium falciparum; conditions: Plasmodium falciparum, 3D7, 72 h, read-out: Pf 3D7 EC50
# Procedure: (§2) Two P. falciparum strains were used in this study and were provided by the MR4 Unit of the American Type Culture Collection (ATCC, Manassas, VA). Those two strains were the chloroquine sensitive strain 3D7 and the K1 strain that is resistant to chloroquine, pyrimethamine, and sulfadoxine.
# (§3) Asynchronous parasites were maintained in culture based on the method of Trager. Parasites were grown in presence of fresh group O-positive erythrocytes (Key Biologics, LLC) in Petri dishes at a hematocrit of 4–6% in RPMI based media (RPMI 1640 supplemented with 0.5% AlbuMAX II, 25 mM HEPES, 25 mM NaHCO3 (pH 7.3), 100 μg/mL hypoxanthine, and 5 μg/mL gentamycin). Cultures were incubated at 37°C in a gas mixture of 90% N2, 5% O2, 5% CO2. For EC50 determinations, 20 μL of RPMI 1640 with 5 μg/mL gentamycin were dispensed per well in an assay plate (Corning 384-well microtiter plate, clear bottom, tissue culture treated, catalog no. 8807BC). 40 nL of compound, previously serially diluted in a separate 384-well white polypropylene plate (Corning, catalog no. 8748BC), was dispensed to the assay plate by hydrodynamic pin transfer (FP1S50H, V&P Scientific Pin Head) and then 20 μL of a synchronized culture suspension (1% rings, 4% hematocrit) was added to each well, thus making a final hematocrit and parasitemia of 2% and 1%, respectively. Assay plates were incubated for 72 h, and the parasitemia was determined by a method previously described: Briefly, 10 μL of the assay solution in PBS (10X SYBR Green I, 0.5% v/v triton X-100, 0.5 mg/mL saponin) was added to each well. Assay plates were shaken for 1 min, incubated in the dark for 90 min, and read with an Envision (Perkin Elmer) spectrophotometer at Ex/Em of 485 nm/535 nm. EC50s were calculated with a custom program (RISE, Robust Investigation of Screening Experiments) using a four-parameter logistic equation.
# P. falciparum strain K1 = test: Proliferation of intraerythrocytic P. falciparum K1 (SYBR Green, 72 h); format: cell-based, Plasmodium falciparum; conditions: Plasmodium falciparum, K1, 72 h, read-out: Pf K1 EC50
# Procedure: as §2, §3
# Solubility assay = format: physicochemical; conditions: aqueous buffer, kinetic from dmso stock, PBS pH 7.4, room temperature
# Procedure: Next, 5 μL of this reference stock plate was mixed with 70 μL of 1-propanol and 75 μL of PBS (pH 7.4) to make the reference plate, and the UV spectrum (250–500 nm) of the reference plate was read. Then, 6 μL of 10 mM test compound stock was added to 600 μL of PBS, pH 7.4, in a 96-well storage plate and mixed. The storage plate was sealed and incubated at room temperature for 18 h. The suspension was then filtered through a 96-well filter plate (pION Inc.). Next, 75 μL of filtrate was mixed with 75 μL of 1-propanol to make the sample plate, and the UV spectrum of the sample plate was read. Calculations were done using μSOL Evolution software based on the area under the curve (AUC) of the UV spectrum of the sample plate and the reference plate. All compounds were tested in triplicate.
# [2] = Parallel artificial membrane permeability assay (PAMPA); conditions: for Permeation: pH 7.4; for Retention: retention in artificial membrane
# Procedure: A parallel artificial membrane permeability assay (PAMPA) was conducted on a Biomek FX lab automation workstation (Beckman Coulter, Inc.) with PAMPA evolution 96 command software (pION Inc.) as follows: 3 μL of 10 mM test compound stock was mixed with 600 μL of PBS (pH 7.4) to make diluted test compound. Then 150 μL of diluted test compound was transferred to a UV plate (pION Inc.), and the UV spectrum was read as the reference plate. The membrane on a preloaded PAMPA sandwich (pION Inc.) was painted with 4 μL of GIT lipid (pION Inc.). The acceptor chamber was then filled with 200 μL of acceptor solution buffer (pION Inc.), and the donor chamber was filled with 180 μL of diluted test compound. The PAMPA sandwich was assembled, placed on the Gut-Box controlled environment chamber and stirred for 30 min. The aqueous boundary layer was set to 40 μm for stirring. The UV spectrum (250–500 nm) of the donor and the acceptor were read. The permeability coefficient was calculated using PAMPA Evolution 96 Command software (pION Inc.) based on the AUC of the reference plate, the donor plate, and the acceptor plate. All compounds were tested in triplicate.
# [3] = read-out: IC50 PfHT, inhibition of uptake of 100 μM [3H] D-glucose, 1 min uptake assay
# Sequence of PfHT (Q7KWJ5 whole entry): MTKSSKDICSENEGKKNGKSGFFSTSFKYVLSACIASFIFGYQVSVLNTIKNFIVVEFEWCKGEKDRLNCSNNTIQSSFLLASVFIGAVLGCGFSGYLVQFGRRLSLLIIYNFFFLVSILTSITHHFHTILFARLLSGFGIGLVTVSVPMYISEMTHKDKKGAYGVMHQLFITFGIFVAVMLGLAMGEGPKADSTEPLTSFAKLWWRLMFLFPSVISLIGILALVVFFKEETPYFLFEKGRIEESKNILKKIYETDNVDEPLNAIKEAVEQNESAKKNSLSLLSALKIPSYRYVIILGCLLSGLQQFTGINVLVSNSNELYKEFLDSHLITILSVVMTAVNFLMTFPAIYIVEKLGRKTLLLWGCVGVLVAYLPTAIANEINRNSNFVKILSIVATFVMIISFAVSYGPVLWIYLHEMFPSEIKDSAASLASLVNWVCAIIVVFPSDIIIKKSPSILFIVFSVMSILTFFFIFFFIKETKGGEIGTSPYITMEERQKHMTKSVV
Structure (SMILES),EC50 [1] [µM],IC50 (PfHT) [µM],"SIglucose GLUT1/PfHT (Specificity Index, IC50 for GLUT1/IC50 for PfHT) (PfHT)",IC50 (human GLUT1),further results
CC(C)(C)C(=O)Nc1ccc(C(=O)Nc2cccc(-c3nc4ccccc4[nH]3)c2)cc1 [Compound 8],0.28,2.7,0.14,0.37 µM,
COc1ccc(Nc2cc(C)nc(Nc3ccc(NC(C)=O)cc3)n2)cc1 [Compound 5],0.86,3.4,0.073,0.25 µM,
"OC(c1cc(C(F)(F)F)nc2c(C(F)(F)F)cccc12)C1CCCCN1 (centres unmarked) [Mefloquine, mefloquine, reference compound]",,,,,"EC50 (P. falciparum strain 3D7; chloroquine sensitive strain 3D7, 72 h): 0.12 µM; EC50 (P. falciparum strain K1; multi-drug resistant strain K1, 72 h): 0.02 µM"
O=C1c2ccc3c4c(ccc(c24)C(=O)N1CCCCO)C(=O)N(CCCCO)C3=O [Compound 7],0.79,0.051,71,3.6 µM and > 3 µM,"selective inhibition of PfHT versus GLUT1 (PfHT): 71 fold; Ki (PfHT; Kic (Ki for binding of inhibitor to free transporter), from plot of Km/Vmax versus [I]): 0.093 µM; Ki (PfHT; Kiu (Ki for binding of inhibitor to substrate-bound transporter), from plot of 1/Vmax versus [I]): 0.091 µM; Vmax (PfHT; [I] 100 nM): 274 ± 71 pmol per 10^7 cells per min; Vmax (PfHT; [I] 300 nM): 128 ± 42 pmol per 10^7 cells per min; mode of inhibition of glucose uptake through PfHT (PfHT; substrate saturation curves, one-way ANOVA of Vmax and Km): non-competitive inhibitors"
Cc1cc(=O)[nH]c(-n2nc(C)cc2NC(=O)C(c2ccccc2)c2ccccc2)n1 [Compound 6],0.84,12,0.055,0.66 µM,
"CCN(CC)CCCC(C)Nc1ccnc2cc(Cl)ccc12 (centres unmarked) [Chloroquine, chloroquine, reference compound]",,,,,EC50 (P. falciparum strain 3D7): 0.08 µM; EC50 (P. falciparum strain K1): 0.81 µM
Cc1cccc(C(=O)Nc2cccc(-c3nc4ccccc4[nH]3)c2)c1 [Compound 17],,13,0.92,12 µM,
Cc1ccc(C(=O)Nc2cccc(-c3nc4ccccc4[nH]3)c2)cc1 [Compound 16],,23,2–3 and 3.1,72 µM,
"CNC(=C[N+](=O)[O-])NCCSCc1ccc(CN(C)C)o1 [Ranitidine HCl, ranitidine, reference compound]",,,,,solubility at 18 h (Solubility assay; PBS buffer): 84 ± 1.2 µM; Permeation [2]: 0 ± 0 10^-6 cm/s; Retention [2]: 1.7 ± 1.3%
CCC(C)(C)C1CCc2[nH]c3ccccc3c(=O)c2C1 (centres unmarked) [Compound 4],0.38,27,0.21,5.7 µM,
COc1ccc(Nc2ccc3cc(S(=O)(=O)N4CCOCC4)ccc3n2)cc1OC [Compound 15],,3.1,0.27,0.84 µM,
"CCCSc1ccc2nc(NC(=O)OC)[nH]c2c1 [Albendazole, albendazole, reference compound]",,,,,solubility at 18 h (Solubility assay): 5.9 ± 2.3 µM; Permeation [2]: 286 ND 10^-6 cm/s; Retention [2]: 59 ± 27%
CC(C)(C)C(=O)Nc1ccc(C(=O)Nc2ccc(-c3nc4ccccc4[nH]3)cc2)cc1 [Compound 21],,91,0.12,11 µM,
CC(C)(C)c1ccc(C(=O)Nc2cccc(-c3nc4ccccc4[nH]3)c2)cc1 [Compound 20],,,,31 µM,IC50 (PfHT; [3]): > 10 µM
Cc1cc(C)cc(C(=O)Nc2cccc(-c3nc4ccccc4[nH]3)c2)c1 [Compound 18],,16,0.75,12 µM,
CC(C)C(C(=O)n1ncc2c3c(N)nc(N)nc3ccc21)C(C)C [Compound 3],0.65,1.1,7.4,8.1 µM,
O=C(Nc1cccc(-c2nc3ccccc3[nH]2)c1)c1ccccc1 [Compound 19],,5.3,2–3 and 2.1,11 µM,
COc1ccc(Nc2ccc3cc(S(=O)(=O)N4CCCCC4C)ccc3n2)cc1Cl (centres unmarked) [Compound 11],,0.94,65,61 µM,selective inhibition of PfHT versus GLUT1 (PfHT): 65 fold
COc1ccccc1Nc1ccc2cc(S(=O)(=O)N3CCCC3)ccc2n1 [Compound 14],,,,6.3 µM,IC50 (PfHT; [3]): > 10 µM
CCC(C)(CC)C(=O)n1ncc2c3c(N)nc(N)nc3ccc21 [Compound 2],0.01,3,15,44 µM,
"NC(=O)N1c2ccccc2C=Cc2ccccc21 [Carbamazepine, carbamazepine, reference compound]",,,,,solubility at 18 h (Solubility assay; PBS buffer): 87 ± 1.2 µM; Permeation [2]: 85 ± 21 10^-6 cm/s; Retention [2]: 43 ± 3.0%
CCN1CCN(Cc2ccc(NC(=O)c3cc4ccc5cccnc5c4[nH]3)cc2)CC1 [Compound 9],0.38,3.5,2.7,9.5 µM,
